From patent publication US20240360178A1, “MACROCYCLIC IMMUNOMODULATORS” (Bristol-Myers Squibb Company, priority 2021, published 2024) come the findings set out here.

Positions of bridges follow the written chain, without caps; N, C: chain ends. Non-standard residues stand in square brackets, D forms with d. Residues, ends and D or L forms follow the SMILES beside them. Bip = N[C@@H](Cc1ccc(-c2ccccc2)cc1)C(=O)O; Phe(3-Me) = Cc1cccc(C[C@H](N)C(=O)O)c1; Ala(cPr) = N[C@@H](CC1CC1)C(=O)O; NMeF = CN[C@@H](Cc1ccccc1)C(=O)O; Aad = N[C@@H](CCCC(=O)O)C(=O)O; Cha = N[C@@H](CC1CCCCC1)C(=O)O; dPip = O=C(O)[C@H]1CCCCN1; NMeA = CN[C@@H](C)C(=O)O; Orn = NCCC[C@H](N)C(=O)O; Nva = CCC[C@H](N)C(=O)O; Dap = NC[C@H](N)C(=O)O; Sar = CNCC(=O)O

The target in the assay is T1, human PD-1 (Jurkat-PD-1 cells) / PE-labeled human PD-L1-Ig (Homo sapiens, UniProt Q15116).
T1 construct: expressed in transfected cells; host or cells: Jurkat cell line over-expressing human PD-1
T1 sequence (Q15116 25-288): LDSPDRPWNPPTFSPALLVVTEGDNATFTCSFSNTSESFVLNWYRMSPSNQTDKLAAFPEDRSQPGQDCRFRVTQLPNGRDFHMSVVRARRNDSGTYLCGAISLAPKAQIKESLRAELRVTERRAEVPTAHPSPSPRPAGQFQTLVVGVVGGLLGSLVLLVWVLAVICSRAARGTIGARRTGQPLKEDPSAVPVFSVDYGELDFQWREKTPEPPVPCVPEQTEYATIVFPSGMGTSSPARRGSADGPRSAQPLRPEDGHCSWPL
Description: Jurkat-PD-1 Cell Binding High-Content Screening Assay (CBA); Jurkat hPD1-PDL1 assay. Conditions: Jurkat cell line over-expressing human PD-1; PE-labeled PD-L1-Ig 20 nM final; compound incubated 2 hours at 37° C.; read-out: Jurkat HPD1-PDL1 IC50. In outline: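 Compound was added to Jurkat-PD-1 cells in DMEM plus 10% fetal calf serum and incubated 2 hours at 37° C. Binding of phycoerythrin-conjugated PD-L1-Ig (20 nM final) to the cells was imaged.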

As to `CC(C)C[C@@H]1NC(=O)[C@H](Cc2c[nH]c3ccccc23)NC(=O)[C@H](CC(=O)O)NC(=O)[C@H](Cc2ccc(O)cc2)NC(=O)[C@H](Cc2ccccc2)NC(=O)CSC[C@@H](C(=O)N[C@@H](C)C(N)=O)NC(=O)[C@H](CO)NC(=O)[C@H](C(C)C)NC(=O)[C@H](CC(C)C)NC(=O)[C@H](CCC(N)=O)NC(=O)[C@H]2CCCN2C(=O)[C@H](C)N(C)C(=O)[C@H](C(C)C)NC(=O)[C@H](Cc2ccc(-c3ccccc3)cc2)NC1=O` [Example 1037] ({CH2CO}-FYDWL[Bip]V[NMeA][dP]QLVSCA-NH2; thioether N-14), the IC50 (usually the concentration that inhibits the measured activity by half) is 70 nM. With `CC(C)C[C@@H]1NC(=O)CSC[C@@H](C(=O)NCC(N)=O)NC(=O)[C@H](CO)NC(=O)[C@H](C(C)C)NC(=O)[C@H](CC(C)C)NC(=O)[C@H](CCCNC(=N)N)NC(=O)[C@H](Cc2ccccc2)N(C)C(=O)[C@H](C)N(C)C(=O)[C@H](CCC(=O)O)NC(=O)[C@H](Cc2ccc(-c3ccccc3)cc2)NC(=O)[C@H](C(C)C)NC(=O)[C@H](Cc2c[nH]c3ccccc23)NC(=O)[C@H](CC(=O)O)NC(=O)[C@H](Cc2ccc(O)cc2)NC1=O` [Example 1287] ({CH2CO}-LYDWV[Bip]E[NMeA][NMeF]RLVSCG-NH2; thioether N-14) the figure was 130 nM; with `CC(C)C[C@@H]1NC(=O)[C@H](CCCNC(=N)N)NC(=O)[C@H](Cc2ccccc2)N(C)C(=O)[C@H](C)N(C)C(=O)[C@H](CCC(=O)O)NC(=O)[C@H](Cc2ccc(-c3ccccc3)cc2)NC(=O)[C@H](C(C)C)NC(=O)[C@H](Cc2c[nH]c3ccccc23)NC(=O)[C@H](CC(=O)O)NC(=O)[C@H](Cc2ccc(O)cc2)NC(=O)[C@H](CC(N)=O)NC(=O)CSC[C@@H](C(=O)N[C@@H](C)C(N)=O)NC(=O)[C@H](CCCN)NC(=O)[C@H](C(C)C)NC1=O` [Example 1378] ({CH2CO}-NYDWV[Bip]E[NMeA][NMeF]RLV[Orn]CA-NH2; thioether N-14), 110 nM.

Take `CC(C)C[C@@H]1NC(=O)[C@H](CC(N)=O)NC(=O)[C@H](Cc2ccccc2)N(C)C(=O)[C@H](C)N(C)C(=O)[C@H](CCCNC(=N)N)NC(=O)[C@H](Cc2ccc(-c3ccccc3)cc2)NC(=O)[C@H](C(C)C)NC(=O)[C@H](Cc2c[nH]c3ccccc23)NC(=O)[C@H](CC(=O)O)NC(=O)[C@H](Cc2ccc(O)cc2)NC(=O)[C@H](Cc2ccccc2)NC(=O)CSC[C@@H](C(=O)NCC(N)=O)NC(=O)[C@H](CO)NC(=O)[C@H](C(C)C)NC1=O` [Example 1207] ({CH2CO}-FYDWV[Bip]R[NMeA][NMeF]NLVSCG-NH2; thioether N-14): the IC50 came out at 320 nM. The value for `CC(C)C[C@@H]1NC(=O)[C@H](Cc2c[nH]c3ccccc23)NC(=O)[C@H](CC(=O)O)NC(=O)[C@H](Cc2ccc(O)cc2)NC(=O)[C@H](Cc2ccccc2)NC(=O)CSC[C@@H](C(=O)N[C@@H](C)C(N)=O)NC(=O)[C@H](CO)NC(=O)[C@H](C(C)C)NC(=O)[C@H](CC(C)C)NC(=O)[C@H](CC(N)=O)NC(=O)CN(C)C(=O)[C@H](C)N(C)C(=O)[C@H](CCCC(=O)O)NC(=O)[C@H](Cc2ccc(-c3ccccc3)cc2)NC1=O` [Example 1092] ({CH2CO}-FYDWL[Bip][Aad][NMeA][Sar]NLVSCA-NH2; thioether N-14) was 260 nM; that for `CC(C)C[C@@H]1NC(=O)[C@H](Cc2c[nH]c3ccccc23)NC(=O)[C@H](CC(=O)O)NC(=O)[C@H](Cc2ccc(O)cc2)NC(=O)[C@H](Cc2ccccc2)NC(=O)CSC[C@@H](C(=O)N[C@@H](C)C(N)=O)NC(=O)[C@H](CO)NC(=O)[C@H](C(C)C)NC(=O)[C@H](CC2CC2)NC(=O)[C@H](CC(N)=O)NC(=O)CN(C)C(=O)[C@H](C)N(C)C(=O)[C@H](C(C)C)NC(=O)[C@H](Cc2ccc(-c3ccccc3)cc2)NC1=O` [Example 1144] ({CH2CO}-FYDWL[Bip]V[NMeA][Sar]N[Ala(cPr)]VSCA-NH2; thioether N-14) was 630 nM.

Turning to `CC(C)C[C@@H]1NC(=O)[C@H](Cc2c[nH]c3ccccc23)NC(=O)[C@H](CC(=O)O)NC(=O)[C@H](Cc2ccc(O)cc2)NC(=O)[C@H](Cc2ccccc2)NC(=O)CSC[C@@H](C(=O)N[C@@H](C)C(N)=O)NC(=O)[C@H](CO)NC(=O)[C@H](C(C)C)NC(=O)[C@H](CC(C)C)NC(=O)[C@H](CC(N)=O)NC(=O)[C@H]2CCCN2C(=O)[C@H](CCCN)NC(=O)[C@H](C(C)C)NC(=O)[C@H](Cc2ccc(-c3ccccc3)cc2)NC1=O` [Example 1200] ({CH2CO}-FYDWL[Bip]V[Orn][dP]NLVSCA-NH2; thioether N-14), the IC50 came out at 30 nM. The value for `CCC[C@H](NC(=O)[C@@H]1CSCC(=O)N[C@@H](Cc2ccccc2)C(=O)N[C@@H](Cc2ccc(O)cc2)C(=O)N[C@@H](CC(=O)O)C(=O)N[C@@H](Cc2c[nH]c3ccccc23)C(=O)N[C@@H](C(C)C)C(=O)N[C@@H](Cc2ccc(-c3ccccc3)cc2)C(=O)N[C@@H](CCCNC(=N)N)C(=O)N(C)[C@@H](C)C(=O)N(C)[C@@H](Cc2ccccc2)C(=O)N[C@@H](CCCNC(=N)N)C(=O)N[C@@H](CC(C)C)C(=O)N[C@@H](C(C)C)C(=O)N[C@@H](CO)C(=O)N1)C(N)=O` [Example 1329] ({CH2CO}-FYDWV[Bip]R[NMeA][NMeF]RLVSC[Nva]-NH2; thioether N-14) was 260 nM; that for `CC(C)C[C@@H]1NC(=O)[C@H](Cc2c[nH]c3ccccc23)NC(=O)[C@H](CC(=O)O)NC(=O)[C@H](Cc2ccc(O)cc2)NC(=O)[C@H](Cc2ccccc2)NC(=O)CSC[C@@H](C(=O)N[C@@H](C)C(N)=O)NC(=O)[C@H](CO)NC(=O)[C@H](C(C)C)NC(=O)[C@H](CC2CCCCC2)NC(=O)[C@H](CC(N)=O)NC(=O)CN(C)C(=O)[C@H](C)N(C)C(=O)[C@H](C(C)C)NC(=O)[C@H](Cc2ccc(-c3ccccc3)cc2)NC1=O` [Example 1093] ({CH2CO}-FYDWL[Bip]V[NMeA][Sar]N[Cha]VSCA-NH2; thioether N-14) was 270 nM; that for `CC(C)C[C@@H]1NC(=O)[C@H](CC(N)=O)NC(=O)[C@H](Cc2ccccc2)N(C)C(=O)[C@H](C)N(C)C(=O)[C@H](C(C)C)NC(=O)[C@H](Cc2ccc(-c3ccccc3)cc2)NC(=O)[C@H](C(C)C)NC(=O)[C@H](Cc2c[nH]c3ccccc23)NC(=O)[C@H](CC(=O)O)NC(=O)[C@H](Cc2ccc(O)cc2)NC(=O)[C@H](Cc2ccccc2)NC(=O)CSC[C@@H](C(=O)N[C@@H](C)C(N)=O)NC(=O)[C@H](CO)NC(=O)[C@H](C(C)C)NC1=O` [Example 1112] ({CH2CO}-FYDWV[Bip]V[NMeA][NMeF]NLVSCA-NH2; thioether N-14) was 370 nM. For the molecule `CC(C)C[C@@H]1NC(=O)[C@H](CCCNC(=N)N)NC(=O)[C@H](Cc2ccccc2)N(C)C(=O)[C@H](C)N(C)C(=O)[C@H](CCCNC(=N)N)NC(=O)[C@H](Cc2ccc(-c3ccccc3)cc2)NC(=O)[C@H](C(C)C)NC(=O)[C@H](Cc2c[nH]c3ccccc23)NC(=O)[C@H](CC(=O)O)NC(=O)[C@H](Cc2ccc(O)cc2)NC(=O)[C@H](CO)NC(=O)CSC[C@@H](C(=O)NCC(N)=O)NC(=O)[C@H](CO)NC(=O)[C@H](C(C)C)NC1=O` [Example 1062] ({CH2CO}-SYDWV[Bip]R[NMeA][NMeF]RLVSCG-NH2; thioether N-14), the IC50 is 160 nM. The value for `CC(C)C[C@@H]1NC(=O)[C@H](CCCNC(=N)N)NC(=O)[C@H](Cc2ccccc2)N(C)C(=O)[C@H](C)N(C)C(=O)[C@H](CCC(=O)O)NC(=O)[C@H](Cc2ccc(-c3ccccc3)cc2)NC(=O)[C@H](C(C)C)NC(=O)[C@H](Cc2c[nH]c3ccccc23)NC(=O)[C@H](CC(=O)O)NC(=O)[C@H](Cc2ccc(O)cc2)NC(=O)[C@H](Cc2ccccc2)NC(=O)CSC[C@@H](C(=O)N[C@@H](CCC(=O)O)C(N)=O)NC(=O)[C@H]([C@@H](C)O)NC(=O)[C@H](C(C)C)NC1=O` [Example 1351] ({CH2CO}-FYDWV[Bip]E[NMeA][NMeF]RLVTCE-NH2; thioether N-14) was 380 nM. The value for `CC(C)C[C@@H]1NC(=O)[C@H](Cc2c[nH]c3ccccc23)NC(=O)[C@H](CC(=O)O)NC(=O)[C@H](Cc2ccc(O)cc2)NC(=O)[C@H](Cc2ccccc2)NC(=O)CSC[C@@H](C(=O)N[C@@H](C)C(N)=O)NC(=O)[C@H](CO)NC(=O)[C@H](C(C)C)NC(=O)[C@H](CC(C)C)NC(=O)[C@H](CC(N)=O)NC(=O)[C@H]2CCCCN2C(=O)[C@H]2CCCN2C(=O)[C@H](C(C)C)NC(=O)[C@H](Cc2ccc(-c3ccccc3)cc2)NC1=O` [Example 1006] ({CH2CO}-FYDWL[Bip]V[dP][dPip]NLVSCA-NH2; thioether N-14) was 40 nM. With `CC(C)C[C@@H]1NC(=O)[C@H](CCCNC(=N)N)NC(=O)[C@H](Cc2ccccc2)N(C)C(=O)[C@H](C)N(C)C(=O)[C@H](CN)NC(=O)[C@H](Cc2ccc(-c3ccccc3)cc2)NC(=O)[C@H](C(C)C)NC(=O)[C@H](Cc2c[nH]c3ccccc23)NC(=O)[C@H](CC(=O)O)NC(=O)[C@H](Cc2ccc(O)cc2)NC(=O)[C@H](Cc2ccccc2)NC(=O)CSC[C@@H](C(=O)NCC(N)=O)NC(=O)[C@H](CO)NC(=O)[C@H](C(C)C)NC1=O` [Example 1242] ({CH2CO}-FYDWV[Bip][Dap][NMeA][NMeF]RLVSCG-NH2; thioether N-14) the figure was 240 nM.

In the case of `Cc1cccc(C[C@@H]2NC(=O)[C@H](CC(=O)O)NC(=O)[C@H](Cc3ccc(O)cc3)NC(=O)[C@H](Cc3ccccc3)NC(=O)CSC[C@@H](C(=O)N[C@@H](C)C(N)=O)NC(=O)[C@H](CO)NC(=O)[C@H](C(C)C)NC(=O)[C@H](CC(C)C)NC(=O)[C@H](CC(N)=O)NC(=O)CN(C)C(=O)[C@H](C)N(C)C(=O)[C@H](C(C)C)NC(=O)[C@H](Cc3ccc(-c4ccccc4)cc3)NC(=O)[C@H](CC(C)C)NC2=O)c1` [Example 1053] ({CH2CO}-FYD[Phe(3-Me)]L[Bip]V[NMeA][Sar]NLVSCA-NH2; thioether N-14), the IC50 was 120 nM.
